# Measurements published in patent US9676793B2, “Co-crystals of 5-amino-2-oxothiazolo[4,5-d]pyrimidin-3(2H)-yl-5-hydroxymethyl tetrahydrofuran-3-yl acetate and methods for preparing and using the same” (Hoffmann-La Roche Inc., priority 2014, dated 2017).
# Read-outs that look alike come from different tables or passages of the source. Marks after values point to notes of the source that are not given here.
# Key:
# [1] = Solid state stability by UPLC; type: physicochemical
# Protocol: Solid state stability studies were performed by storing a test sample of the co-crystal at different temperatures and under conditions of different relative humidity for a period of one to three months. Stability was judged by Ultra performance liquid chromatography (UPLC) analysis of the test co-crystals. Percent degradation of API in a test sample of the co-crystal was calculated as follows: Co-crystals in accordance with the invention are fairly stable across the temperature range used in the study. […] Without ascribing to a particular theory, crystallinity may contribute to the stability of inventive co-crystals. Table 7 illustrates data from a stability of a Formula I glutaric acid co-crystal in accordance with the invention across a range of temperatures and in the presence of 75% relative humidity at 40° C. […] Further supporting the hypothesis that crystallinity contributes to increased stability was provided by comparing the amorphous form of the free base of a Formula I compound to the crystalline form of a Formula I compound as illustrated in Table 8.
# [2] = Solubility and solution stability in buffers by UPLC; type: physicochemical; settings: thermodynamic from solid, read-out: solubility: free-base form of the Formula I compound present per milliliter of buffer solution
# Description: Studies have shown that the co-crystals were soluble in water and buffered solvents.
# Unlike the tosylate salt, no genotoxic by-products are formed in solutions of the inventive co-crystals.
# [3] = Pharmacokinetic study after oral administration; type: in vivo, cynomolgus monkeys
# Description: Studies were undertaken to compare the pharmacokinetics (PK) of the glutaric acid co-crystal to the PK of the tosylate salt of the Formula I compound. A 3% solution of Blanose 7LF PM without preservatives was used to formulate the glutaric acid co-crystal and tosylate salt. Results from a pharmacokinetic study in cynomolgus monkeys indicate that the plasma concentration of the glutaric acid co-crystal was greater than the corresponding tosylate salt following oral administration of each compound.
# In this study, each compound was administered orally at a dose of 10 mg/kg to cynomolgus monkeys. Following administration, blood was obtained from each test subject at 0 min, 60 min, 120 min and 180 minutes. After separating the plasma from whole blood an aliquot to each plasma sample was denature by the addition of 70% ethanol. The denatured protein was pelleted by centrifugation and the supernatant was collected and dried using a stream of dry nitrogen gas. The pellet thus obtained was re-constituted in water containing 0.1% formic acid and the re-constituted mixture was analyzed by UPLC using a HSS-T3 (high strength silica) column or an YMC TriartC-18 column. Gradient elution using a mixture of water containing 0.1% HCOOH (mobile phase-A) and acetonitrile containing 0.1% HCOOH (mobile phase-B) was employed for analysis of the pharmacokinetic (PK) samples.
# HBV = assay: microbe, parasite or virus in culture
# Protocol: Direct inhibition of viral replication was evaluated by monitoring the levels of secreted HBV DNA and the levels of HBV surface antigen (HBsAg) in cultures containing HBV infected HepaRG cells.
# After three days incubation, the combined medium was replaced with differentiation medium and the cells were maintained in the differentiation medium for an additional 2 to 4 weeks. The differentiation medium was renewed every 2 to 3 days throughout the incubation period. Differentiated HepaRG cells (HepaRGd) display hepatocyte-like cell islands surrounded by monolayer of biliary-like cells. Prior to HBV infection and compound treatment, HepaRGd cells were seeded into collagen I coated 96-well plates (Gibco, Cat# A11428-03) at 50,000 to 60,000 cells per well. Cells were allowed to recover their differentiated phenotype in 96-well plates for at least 1 week after plating prior to HBV infection.
# HBV inoculum was collected from HepG2.2.15 cultured cells, a cell line that supports HBV (genotype D, strain ayw) replication and virion secretion as disclosed in Sells M A., et al., PNAS, 84(4): 1005-1009. HepG2.2.15 cells were maintained in DMEM+GlutaMAX-I (Invitrogen) containing 1× Pen/Strep (Invitrogen), 10% FBS, and 0.25 mg/ml G-418 (Invitrogen) using hyperflasks (Corning) pre-coated with collagen I (BD Biosciences). Upon reaching confluency, HepG2.2.15 culture media was replaced with DMEM+GlutaMAX-I containing 1× Pen-Strep, 2.5% FBS, and 1% DMSO for 3 days and then replaced with DMEM+GlutaMAX-I containing 1× Pen-Strep and 1% DMSO. The 1% DMSO containing media was collected every 3 to 4 days over a two week period and HBV infectious virions and subviral particles were pelleted by ultracentrifugation through a 20% sucrose cushion in a Ti 45 Beckman rotor at 45,000 rpm for 3 hours at 4° C. The pellets were resuspended in WEM at a concentration of 10^8-10^9 genome equivalents (GE) per ml, determined by real time PCR as described below using a genotype D HBV containing plasmid DNA as an internal standard. To evaluate the infectivity of the inoculum, HepaRGd cells in 96-well plates were infected in differentiation medium containing 50 to 200 GE/cell and 4% PEG 8000 (PolyEthylene Glycol 8000, Sigma, Cat# P5413-500G) for 16 hr at 37° C. At the end of the infection, HBV inoculum was removed and cells were washed 3 times with differentiation medium. Differentiation medium was replenished every 2 to 3 days and HBV replication was monitored by measuring secreted HBV DNA, hepatitis B surface (HBsAg) and/or e (HBeAg) antigens.
# HBsAg was detected from 50 μL of HBV infected HepaRG supernatants using the HBsAg chemiluminescence immunoassay (CLIA) kit following instructions as recommended by the manufacturer (Autobio Diagnostics Co., Zhengzhou, China). HBV DNA was extracted from 50 μL of HBV infected HepaRGd supernatants using the MagNA Pure 96 DNA and Viral NA Small Volume Kit (Roche, Cat#05 467 497 001). […] All PCR reactions were performed using the ViiA7 Real Time PCR system (Life Technologies).
# Both direct and indirect inhibitory activity of HBV replication was measured. […] Aliquots of these reagents were added to independent wells of a 96-well culture plate containing HBV infected HepaRGd cells on day 4 post infection. The final concentration of DMSO in each well was 2%. The HepaRGd cells used in the inhibition study were maintained in differentiation media containing 2% DMSO.
# [4] = system: HBV infected HepaRGd cells; assay: Cell viability by CellTiter-Glo, direct treatment; type: cell-based
# [5] = Hygroscopicity of co-crystals; type: physicochemical
# [6] = BCS classification of co-crystals (aqueous solubility); type: physicochemical; settings: for BCS Class (Stahl et al): Table 10
# [7] = Excipient compatibility assay (COMPASS), ternary mixtures; type: physicochemical; settings: glutaric acid co-crystal ternary mixtures
# Protocol: Compatibility of the inventive co-crystals with pharmaceutically acceptable excipients was determined by the classic compatibility assay (COMPASS). According to this method, excipient compatibility was investigated by physically mixing the inventive glutaric acid co-crystals with a single pharmaceutical excipient so as to form a binary mixture or by physically mixing the inventive glutaric acid co-crystals with mixtures containing two or more excipients (ternary mixture). Each binary mixture contained 5% by weight of the Formula I compound, whereas the weight percent of the Formula I compound in a ternary mixture was 50%. The test mixtures were stored at 50° C. for 4 weeks or at a temperature of 40° C. and a relative humidity of 75% for 4 weeks.
# The inventive co-crystals are compatible with fillers and/or excipients commonly used in the manufacture of pharmaceutical compositions. Table 4 illustrates the results of a compatibility study using ternary mixtures of the inventive glutaric acid co-crystal of the Formula I compound. Table 5 illustrates the results for a similar study using ternary mixtures of the tosylate salt of the Formula I compound.
# Ternary mixtures comprising the inventive glutaric acid co-crystal or the tosylate salt of a Formula I compound contained the following excipients in proportions illustrated in Table 6 below.
# [8] = 4 weeks/40° C./ambient conditions (closed container)
# [9] = solid, 1 month, 40° C./75% r.h.
# [10] = solid, 2 months, 40° C./75% r.h.
# [11] = read-out: EC50 against HBV DNA secretion, HBV infected HepaRG cell assay
molecule,measurement,setting,value
"CC(=O)O[C@@H]1C[C@@H](CO)O[C@H]1n1c(=O)sc2cnc(N)nc21 [free base Formula I-amorphous, 5-amino-2-oxothiazolo[4,5-d]pyrimidin-3(2H)-yl-5-hydroxymethyl tetrahydrofuran-3-yl acetate]",% Area Formula I,[1]; 4 weeks/40° C./75% r.h.,86.34 % Area
same,% degradation,[1]; 4 weeks/40° C./75% r.h.,13.57%
same,stability grade,[1]; 4 weeks/40° C./75% r.h.,very
same,% Area Formula I,[1]; [8],98.89 % Area
same,% degradation,[1]; [8],1.011%
same,stability grade,[1]; [8],(moderately
same,T0 % Area Formula I,"[1]; free base forms, T0",99.90 % Area
"CC(=O)O[C@@H]1C[C@@H](CO)O[C@H]1n1c(=O)sc2cnc(N)nc21 [glutaric acid co-crystal, 5-amino-3-(2′-O-acetyl-3′-deoxy-β-D-ribofuranosyl)-3H-thiazolo[4,5]pyrimidine-2-one]",% Area Formula I,"[1]; solid, 1 month, 2-8° C.",99.02 % Area
same,% degradation,"[1]; solid, 1 month, 2-8° C.",−0.08%
same,% Area Formula I,"[1]; solid, 1 month, 40° C.",99.05 % Area
same,% degradation,"[1]; solid, 1 month, 40° C.",−0.11%
same,% Area Formula I,[1]; [9],99.14 % Area
same,% degradation,[1]; [9],−0.2%
same,% Area Formula I,"[1]; solid, 1 month, 60° C.",99.01 % Area
same,% degradation,"[1]; solid, 1 month, 60° C.",−0.07%
same,% Area Formula I,"[1]; solid, 1 month, RT",98.9 % Area
same,% degradation,"[1]; solid, 1 month, RT",0.04%
same,% Area Formula I,"[1]; solid, 2 months, 2-8° C., reference for 2 month stability",99.32** % Area
same,% Area Formula I,"[1]; solid, 2 months, 40° C.",99.35 % Area
same,% degradation,"[1]; solid, 2 months, 40° C.",−0.04%
same,% Area Formula I,[1]; [10],99.34 % Area
same,% degradation,[1]; [10],−0.03%
same,% Area Formula I,"[1]; solid, 2 months, 60° C.",99.56 % Area
same,% degradation,"[1]; solid, 2 months, 60° C.",−0.25%
same,% Area Formula I,"[1]; solid, 2 months, RT",99.22 % Area
same,% degradation,"[1]; solid, 2 months, RT",−0.10%
same,T0 % Area Formula I,"[1]; solid, T0, reference for 1 month stability",98.94* % Area
same,solubility,"[2]; aqueous buffer, pH 4.0 buffer",~8 mg/mL
same,solubility,"[2]; buffer solution, aqueous buffer, pH 7.0 buffered solution",~22 mg/mL
same,solubility,"[2]; buffer solution, simulated gastric fluid, pH 1.0 buffered solution",> 60 mg/mL
same,plasma concentration of the de-acetylated form of the Formula I compound compared to tosylate salt,"[3]; cynomolgus monkeys, oral, 10 mg/kg",about two-fold
same,direct inhibition of HBV viral replication,HBV; cultured HepaRG cells,did not inhibit viral replication
"IP-10: IFNγ-induced protein 10, chemokine",EC50,"HBV; read-out: EC50, HBV replication inhibitory effect, highest concentration tested",> 115 nM
same,CC50,[4],> 115 nM
Nc1ccccc1C(=O)O [2-aminobenzoic acid],Hygroscopicity,[5]; grade in words,slightly
same,Hygroscopicity,[5]; mass change ±,(±1.8%-m/m)
Fumaric acid,Hygroscopicity,[5]; grade in words,slightly
same,Hygroscopicity,[5]; mass change ±,(±0.6%-m/m)
O=C(O)CCC(=O)C(=O)O [α-ketoglutaric acid],Hygroscopicity,[5]; grade in words,slightly
same,Hygroscopicity,[5]; mass change ±,(±0.8%-m/m)
same,BCS Class (Stahl et al),[6],1
"5-amino-3-(2′-O-acetyl-3′-deoxy-β-D-ribofuranosyl)-3H-thiazolo[4,5]pyrimidine-2-one [glutaric acid co-crystal]",Hygroscopicity,[5]; grade in words,slightly
same,Hygroscopicity,[5]; mass change ±,(±0.3%-m/m)
same,BCS Class,[6]; Table 1,1
same,BCS Class (Stahl et al),[6],1
"CC(=O)OC1CC(CO)OC1n1c(=O)sc2cnc(N)nc21.Cc1ccc(S(=O)(=O)O)cc1 (stereo not shown) [Tosylate Salt, 5-amino-2-oxothiazolo[4,5-d]pyrimidin-3(2H)-yl-5-hydroxymethyl tetrahydrofuran-3-yl acetate]",levels of the de-acetylated form of the Formula I compound and biologically active species in plasma,"[3]; monkeys, oral dose of 10 mg/kg, compared with glutaric acid co-crystal",lower levels
TNF-α,EC50,HBV; [11],0.085 ± 0.046 nM
same,EC50,"HBV; read-out: EC50 against HBsAg secretion, HBV infected HepaRG cell assay, unit inferred",0.32 nM
"CC(=O)O[C@@H]1C[C@@H](CO)O[C@H]1n1c(=O)sc2cnc(N)nc21 [free base Formula I-crystalline, 5-amino-2-oxothiazolo[4,5-d]pyrimidin-3(2H)-yl-5-hydroxymethyl tetrahydrofuran-3-yl acetate]",% Area Formula I,[7]; 4 weeks at 40° C./75% RH,99.740 % area
same,% degradation,[7]; 4 weeks at 40° C./75% RH,−0.030%
same,Stability,[7]; 4 weeks at 40° C./75% RH,Fairly
same,% Area Formula I,[7]; 4 weeks at 50° C.,99.670 % area
same,% degradation,[7]; 4 weeks at 50° C.,0.040%
same,Stability,[7]; 4 weeks at 50° C.,Fairly
same,% Area Formula I,[7]; Reference 4 weeks at 2-8° C.,99.710 % area
same,% Area Formula I,[1]; 4 weeks/40° C./75% r.h.,99.56 % Area
same,% degradation,[1]; 4 weeks/40° C./75% r.h.,0.15%
same,stability grade,[1]; 4 weeks/40° C./75% r.h.,stable
same,% Area Formula I,[1]; [8],99.52 % Area
same,% degradation,[1]; [8],0.19%
same,stability grade,[1]; [8],(stable)
same,T0 % Area Formula I,"[1]; free base forms, T0",99.71 % Area
"IL-6: interleukin 6, cytokine",EC50,HBV; [11],0.027 ± 0.0073 nM
same,EC50,"HBV; read-out: EC50 against secretion of HBsAg, HBV infected HepaRG cell assay",0.26 ± 0.02 nM
